≈ marks a conversion by molar mass, not a printed value.
Experiments:
SKOV-3 cells [1] = assay: MTT cell viability assay, SKOV-3; format: cell-based, human; settings: SKOV-3, MTT; for IC50: Homo sapiens
Experimental: (§1) Metastatic ovarian adenocarcinoma (SKOV-3) and normal Chinese hamster ovary (CHO) cell lines were originally obtained from the American Type Culture Collection (ATCC; Manassas, VA). SKOV-3 cells were cultured in McCoy’s 5A medium and CHO cells were cultured in F12K medium. A human periodontal ligament fibroblast cell line was purchased from Lonza, USA and maintained in stroma cell basal medium. T1074 (normal immortalized human ovarian surface epithelial cell line) was originally purchased from Applied Biological Materials (abm®) Canada and cultured in Prigrow 1 medium.
(§2) The inhibitory effects of artonin E and two positive controls paclitaxel and carboplatin were examined by MTT assay. Cells at a density of 5×10^3cells/well were placed in a 96-well plate and left for 24 h to attach. The attached cells were exposed to artonin E, paclitaxel, and carboplatin at different concentrations and incubated for 24, 48, and 72 h. Subsequently, 20 μL of 5 mg/mL MTT solution was added after drug treatment and the resulting mixture was incubated for 4 h to form purple formazan. Afterward, 100 μL of dimethyl sulfoxide (DMSO) was transferred into each well to dissolve the purple formazan, and results were measured using a microplate reader (Tecan Infinite M 200 PRO, Männedorf, Switzerland) at an absorbance of 570 nm. The half-maximal concentrations that caused cell growth inhibition (IC50 values) were obtained from the MTT viability growth curve.

[2] = system: Human periodontal ligament fibroblasts; assay: MTT cell viability assay, periodontal fibroblasts; format: cell-based; settings: Human periodontal fibroblast, 24 h treatment
Experimental: as §1
as §2, with “The half-maximal concentrations that caused cell growth inhibition (IC50 values) were obtained from the MTT viability growth curve.” left out

CHO cells = assay: MTT cell viability assay, CHO; format: cell-based, Chinese hamster; settings: Cricetulus griseus, 24 h treatment
Experimental: as §1
as §2, with “The half-maximal concentrations that caused cell growth inhibition (IC50 values) were obtained from the MTT viability growth curve.” left out

SKOV-3 cells [3] = assay: Clonogenic assay; format: cell-based, human; settings: three weeks incubation
Experimental: The SKOV-3 cells were trypsinized, centrifuged, and supplemented with fresh media. The cells were immediately counted and seeded (300 cells/plate) in a 60 mm Petridish, and left overnight to attach. The attached cells were treated with 0, 1, 5, 10, 15, and 20 μg/mL of artonin E for 24 h. Following incubation, the treated media were removed and fresh media were added. The cells were incubated for three weeks to form colonies. Surviving colonies were fixed with 90% ethanol and stained with crystal violet.

SKOV-3 cells [4] = assay: AO-PI double staining; format: cell-based, human; settings: SKOV-3, 8 μg/mL, 24, 48, 72 h
Experimental: The effect of artonin E in inducing cell death in SKOV-3 cells was determined using acridine orange (AO) and propidium iodide (PI) double staining. SKOV-3 cells were plated at 5×10^5cells in a T75cm^2 flask and incubated overnight to allow attachment. The cells were then exposed to 8 μg/mL of artonin E for 24, 48, and 72 h. After incubation, the treated cells were washed with PBS, and then trypsinized and centrifuged at 1,500 rpm for 5 min. The cells were then resuspended in cold PBS and centrifuged twice to obtain fresh clean pellets. The fresh pellets were mixed with an equal volume of fluorescent dye staining solution (1:1), comprising 10μg/mL AO and 10 μg/mL PI (dissolved in PBS). The freshly stained cell suspension was dropped onto a glass slide and observed under a UV–fluorescence microscope (Leica attached with Q-Flora Software) within 30 min, prior to fading of the fluorescence.

caspase-8 [5] = assay: Colorimetric caspase-8 activation assay; format: cell-based, human; settings: SKOV-3, 8 μg/mL, 48 and 72 h treatment
Experimental: Calorimetric assay of the activation of caspases-3, -8, and -9 was conducted using R & D system kit, USA. Briefly, in a T75cm^2 flask 90% confluent SKOV-3 cells were induced with artonin E for 24, 48, and 72 h. The induced cells were trypsinized and centrifuged at 1,800 rpm for 10 min. The fresh pellets were washed with cold PBS and immediately lysed with protein lysis buffer. The cell lysate was then kept on ice for 10 min, centrifuged at 10,000 g for 15 min, and transferred into a new tube. The fresh cell lysate (50 μL), which contained 100–200 μg of protein, was added into a 96-well plate in triplicate. Fifty microliters of reaction buffer and 5 μL of caspase were then transferred into each designated well before incubating the plate in a CO2 incubator at 37°C for 2 h. A microplate reader (Tecan Infinite M 200 PRO, Männedorf, Switzerland) was used for analysis at a wavelength of 405 nm.

caspase-3 = assay: Western blot, caspase-3; format: cell-based, human; settings: SKOV-3, 8 μg/mL, as early as 24 h
Experimental: (§3) SKOV-3 cells were plated in a 75cm^2 culture flask and exposed to artonin E for 24, 48, and 72 h. Lysis buffer (50 mM Tris–HCl, pH 8.0; 120 mM NaCl, 0.5% NP-40; and 1 mM PMSF) was used to extract the total protein. Protein concentration was determined using a BCA protein assay reagent kit (Bio-Rad, USA). Equal amounts of protein (40 μg) extract were subjected to SDS-PAGE and electroblotted onto a polyvinylidenedifluoride membrane (Bio-Rad). Blots were then blocked with 5% non-fat milk in TBS-Tween buffer 7 (0.12 M Tris-base, 1.5 M NaCl, and 0.1% Tween 20) for 1 h at room temperature. After incubating with the appropriate primary antibody overnight at 4°C, the blots were washed and then incubated with horseradish peroxidase conjugated secondary antibody for 1 h at room temperature. The protein bands were detected using pico or femto chemiluminescence (ECL system) and visualized using a UV gel documentation system. The subsequent primary antibodies, which include those for β-actin (1:10,000), Bax (1:10,000), Bcl-2 (1:10,000), HSP-70 (1:10,000), survivin (1:10,000),caspase -3 (1:10,000), caspase -8 (1:10,000), caspase -9 (1;10,000) and cytochrome c (1:200) were purchased from Abcam, Cambridge, United Kingdom.

caspase-8 [6] = assay: Western blot, caspase-8; format: cell-based, human; settings: SKOV-3, 8 μg/mL, after 48 and 72 h
Experimental: as §3

Bax = assay: Western blot, Bax; format: cell-based, human; settings: SKOV-3, 8 μg/mL, time-dependent
Experimental: as §3

[7] = target: arachidonate 5-lipoxygenase; parameters: method as in PMID 14559276; settings: read-out: IC50 value, arachidonate 5-lipoxygenase inhibition; cited from earlier work
H460 cells = system: H460 cells; parameters: method as in PMID 23225436; settings: dose-dependent manner; cited from earlier work

- IC50 (SKOV-3 cells [1]; SK-OV-3, 24 h, 24 h treatment): 12.8 ± 0.28 µg/mL (≈ 29.4 µM)
- IC50 (SKOV-3 cells [1]; SK-OV-3, 48 h, 48 h treatment): 8 µg/mL (≈ 18.3 µM)
- IC50 (SKOV-3 cells [1]; SK-OV-3, 72 h, 72 h treatment): 6.5 ± 0.5 µg/mL (≈ 14.9 µM)
- IC50 values (SKOV-3 cells [1]; 48 h treatment): 8.8 ± 0.29 µg/mL (≈ 20.2 µM)
- activation of caspase-8 (caspase-8 [5]): significantly (p<0.05)elevated
Compound: CC(C)=CCc1c(-c2cc(O)c(O)cc2O)oc2c3c(cc(O)c2c1=O)OC(C)(C)C=C3 [Artonin E, artonin E]
- IC50 [2]: 67 ± 1 µg/mL (≈ 154 µM)
- IC50 (CHO cells): 57.6 ± 2 µg/mL (≈ 132 µM)
- colony formation (SKOV-3 cells [3]; SKOV-3, 5 μg/mL for 24 h): almost half of the colonies were reduced
- colony formation (SKOV-3 cells [3]; SKOV-3, 10 μg/mL for 24 h): decreasing sharply
- colony formation (SKOV-3 cells [3]; SKOV-3, 15 and 20 μg/mL for 24 h): No colonies were formed
- induction of apoptosis (AO-PI scoring) vs untreated cells (SKOV-3 cells [4]): statistically significant (p<0.05) difference
- protein expression level of caspase-3 (caspase-3): significantly (p<0.05) up-regulated
- protein expression level of caspase-8 (caspase-8 [6]): up-regulated
- expression of Bax (Bax): upregulates
- IC50 [7]: 360 nM
- anoikis (detachment-induced apoptosis) of H460 cells (H460 cells): enhances anoikis

Reference: publication PMC4809498, “Artonin E Induces Apoptosis via Mitochondrial Dysregulation in SKOV-3 Ovarian Cancer Cells” (PLoS ONE, 2016)
